Assay [1] has as its system CaMV 35S promoter (p35S:CAT transgenic tobacco line). On the procedure: (§1) A selected seedling was grown to maturity to produce a homozygous line. Seedlings of this plant were tested for CAT protein in comparison to seedlings of a similar plant transformed with a construct which expressed CAT from the constitutive high activity CaMV 35S promoter (Table 1).
(§2) Individual seedlings from a homozygous transgenic tobacco line carrying the CAT gene expressed from the alcA promoter were compared with those from a similar line transformed with p35S:CAT. […] Induction was achieved by the addition of 0.1% ethanol to the growth medium for 120 h. The induction medium was replaced at 58 h to maintain ethanol concentrations. One leaf was taken prior to induction, and one leaf after induction. CAT ELISA (Boehringer Mannheim) was performed on crude cell extracts; total protein was determined as described previously (Bradford, Anal Biochem 72: 243 (1976). All values are ng CAT protein per mg total protein, and represent the mean of nine individual replicates±one standard deviation.

The subject of assay [2] is alcA promoter (p35S:alcR / palcA:CAT transgenic tobacco line). As for the experimental part:
as §1, §2

In assay [3] the test system is palc:Inv transgenic tobacco plants. Conditions: 1% ethanol root drench. As for the experimental part: (§3) Phenotypic modification started 72 hours after ethanol induction and was strongest after 96 hours. The final phenotype was identical to the previously published results using the 35S CaMV promoter to drive the expression of cytosolic yeast invertase (Sonnewald et al Plant J. 1, 95 (1991)). Development of this phenotype followed maximal invertase activity and was most severe in transformant 28. Photosynthesis fluorescence measurements were used to monitor changes of quantum yield (Schreiber et al, in Ecophysiology of Photosynthesis Vol. 100, Schuize and Caldwell, Eds (Springer Verlag, Berlin, 1994), pp 49-70.) of all three transformant lines in vivo throughout the induction experiment.
Fluorescence measurements were used to monitor changes in photosynthetic parameters during induction of invertase activity using the PAM-2000 instrument (Walz, Effeltrich, Germany). Quantum use efficiency (quantum yield) of photosystem II (PSII) was measured by applying a saturating light beam on light adapted leaves of wildtype and transformed plants (palc:Inv). Before each measurement, it was verified that the saturating pulse had reached a plateau to allow an accurate determination of Fm′. The intensities of the measuring and saturating light beam were adjusted to reach a FO′ value close to 0.4. Measurements were conducted on different leaves having reached 8% (A), 15% (B), or 45% (C) of maximal leaf area of five plants of each genotype at the indicated time points.
Quantum yield of three succeeding light adapted leaves (leaf A-C) starting from the top of the plant was measured using a PAM-2000 instrument at the time points indicated. Values given are the means +−SE (n=5). For plants of line 28, quantum yield was reduced by 23% (p<0.05) and 27% (p<0.05) and for plants of line 10 only by 6% and 17% (p<0.05), respectively.

The test system of assay [4] is palcA:cyInv transgenic tobacco plants. On the procedure: as §3

Like-named read-outs stand apart in the source and are kept apart here.

For the compound `CCO` [Ethanol, ethanol], in assay [1] (ethanol-treated p35S:CAT seedlings), the “reduction in CAT protein levels relative to the untreated control” value stood at 29%. Besides, the CAT protein level is reported as 55.46 ± 10.85 ng CAT protein per mg total protein in assay [1] (p35S:CAT seedlings, 0.1% ethanol in growth medium for 120 h, mean of nine replicates ± one SD) and 30.37 ± 3.91 ng CAT protein per mg total protein in assay [2] (homozygous palcA:CAT seedlings, 0.1% ethanol in growth medium for 120 h, mean of nine replicates ± one SD). In addition, the “CAT activity of induced palc:CAT seedlings relative to ethanol-treated p35S:CAT seedlings” value in assay [2] (ethanol-induced palc:CAT vs ethanol-treated p35S:CAT) stood at 55%. Also, the “CAT activity of induced palc:CAT seedlings relative to untreated p35S:CAT seedlings” value in assay [2] (ethanol-induced palc:CAT vs untreated p35S:CAT) is 39%. In addition, the “reduction of quantum yield” value is listed as 6% in assay [3] (line 10, leaf B (15% of maximal leaf area)); 17% in assay [3] (line 10, leaf C (45% of maximal leaf area), p<0.05); 23% in assay [3] (line 28, leaf B (15% of maximal leaf area), p<0.05); 27% in assay [3] (line 28, leaf C (45% of maximal leaf area), p<0.05). Also, the “invertase activity in transgenic plants at two ethanol concentrations” value in assay [4] (5% vs 1% ethanol (FIG. 3)) is reported as “dose-dependent”. The “time after first addition of ethanol at which elevated invertase activity was measurable” value in assay [4] (lines 10, 27 and 28, root drench 100 ml 1% ethanol (v/v)) was found to be 6 h. The “time after initial root drenching at which invertase activity reached a plateau” value in assay [4] (lines 10 and 27, root drench 100 ml 1% ethanol, repeated at 48 and 72 hours) is 96 h. Further, the “start of phenotypic modification after ethanol induction” value in assay [4] (palcA:cyInv lines, strongest after 96 hours) was found to be 72 h.
